Earlier results in patent US11896678B2, “Compositions and methods for treatment of peroxisome proliferator-activated receptor gamma (PPARG) activated cancer” (THE BROAD INSTITUTE, INC., priority 2017, dated 2024).

Legend:
[1] = cited from earlier work
[2] = alone; cited from earlier work
[3] = cited from earlier work; remark: listed apart in the source
bladder cancer = settings: rodents; cited from earlier work
[4] = system: urinary bladder carcinogenesis; settings: rats; cited from earlier work

For `N.N.O=C([O-])C1(C(=O)[O-])CCC1.[Pt+2]` [Carboplatin, platinum, diammine [1,1-cyclobutane-dicarboxylato(2-)-0,0′]-(SP-4-2)], the solubility in water [1] is given as “approximately 14 mg/mL”, the oral bioavailability [2] is given as “approximately 4%” and the “pH of a 1% solution” value [3] is given as 5-7.
For `CN(CCOc1ccc(CC2SC(=O)NC2=O)cc1)c1ccccn1` (centres unmarked) [rosiglitazone], the “carcinogenic effect, bladder cancer” value (bladder cancer) is listed as “not” and the “urinary bladder carcinogenesis compared with OH-BBN alone” value [4] is listed as “potentiate urinary bladder carcinogenesis”.
